Assay [1] has as its target Gastrin/cholecystokinin type B receptor (Cavia porcellus). Kind of assay: Evaluated in vitro for its binding affinity towards cholecystokinin type B receptor of guinea pig cortex.
Assay [2] shares this target. Kind of assay: In vitro binding affinity towards Cholecystokinin type B receptor of guinea pig cortex.
Assay [3] has as its target Cholecystokinin receptor type A (Cavia porcellus). Kind of assay: Evaluated in vitro for its binding affinity towards cholecystokinin type A receptor of guinea pig pancreas.
Assay [4] deals with Gastrin/cholecystokinin type B receptor (Cavia porcellus). Kind of assay: Evaluated in vitro for its binding affinity towards cholecystokinin type B receptor of guinea pig cortex. The source holds these as a separate data set.

Each structure is given as a SMILES string. *1 amine or outer side, *2 acyl side, *3 side chain or, on linkers, in order; H or OH if unused. Where a SMILES comes first, the peptide text is derived from it. [ ]: non-standard residue; d: D form. The star is where a group is joined. Hydrocinnamoyl(4-OSO3H) = O=C(CCc1ccc(OS(=O)(=O)O)cc1)*; X2 = O=C([C@@H]1CC(OS(=O)(=O)O)CN1[*:1])[*:2]; X5 = CCC[C@H]1CCN([*:1])[C@@H]1C(=O)[*:2]; X4 = O=C(c1ccc2cc(OS(=O)(=O)O)ccc2c1)*; X1 = CCCC1CCN([*:1])[C@@H]1C(=O)[*:2]; X3 = O=C(/C(=C/c1ccccc1)N[*:1])[*:2]; NMeF = CN[C@@H](Cc1ccccc1)C(=O)O; Nle = CCCC[C@H](N)C(=O)O; Ava = NCCCCC(=O)O

The molecule `CCCC[C@H](NC(=O)CCc1ccc(OS(=O)(=O)O)cc1)C(=O)NCC(=O)N[C@@H](Cc1c[nH]c2ccccc12)C(=O)N[C@@H](CCCC)C(=O)N[C@@H](CC(=O)O)C(=O)N[C@@H](Cc1ccccc1)C(N)=O` registered a half-maximal inhibitory concentration (IC50) in assay [1] of 0.5 nM.

With `CCCC[C@H](NC(=O)[C@H](Cc1c[nH]c2ccccc12)NC(=O)CNC(=O)[C@@H](CCCC)NC(=O)CCc1ccc(OS(=O)(=O)O)cc1)C(=O)N[C@@H](CC(=O)O)C(=O)N[C@@H](Cc1ccccc1)C(N)=O`, in assay [2], the half-maximal inhibitory concentration (IC50) is 7.9 nM.

Consider `CCCC[C@H](NC(=O)[C@H](Cc1c[nH]c2ccccc12)NC(=O)CN1CC[C@H](NC(=O)CCc2ccc(OS(=O)(=O)O)cc2)C1=O)C(=O)N[C@@H](CC(=O)O)C(=O)N[C@@H](Cc1ccccc1)C(N)=O`, for which, in assay [1], the IC50 is 15 nM.

Regarding `CCCC[C@H](NC(=O)c1ccc2cc(OS(=O)(=O)O)ccc2c1)C(=O)NCC(=O)N[C@@H](Cc1c[nH]c2ccccc12)C(=O)N[C@@H](CCCC)C(=O)N[C@@H](CC(=O)O)C(=O)N[C@@H](Cc1ccccc1)C(N)=O` (X4-[Nle]GW[Nle]DF-NH2), in assay [1], the IC50 turned out to be 32 nM. This IC50 is about 2.1-fold higher than that of the molecule before.

In assay [1], `CC(C)C[C@H](NC(=O)[C@H](Cc1c[nH]c2ccccc12)NC(=O)CCCCNC(=O)CCc1ccc(OS(=O)(=O)O)cc1)C(=O)N[C@@H](CC(=O)O)C(=O)N[C@@H](Cc1ccccc1)C(N)=O` ({Hydrocinnamoyl(4-OSO3H)-Ava}-WLDF-NH2) yielded a concentration for half-maximal inhibition (IC50) of 1.1 nM.

`CCCC[C@H](NC(=O)[C@H](Cc1c[nH]c2ccccc12)NC(=O)CNC(=O)[C@H](CC(C)C)NC(=O)CCc1ccc(OS(=O)(=O)O)cc1)C(=O)N[C@@H](CC(=O)O)C(=O)N[C@@H](Cc1ccccc1)C(N)=O` ({Hydrocinnamoyl(4-OSO3H)}-LGW[Nle]DF-NH2) yielded an IC50 in assay [1] of 0.59 nM.

For `CCC[C@H]1CCN(C(=O)[C@H](Cc2c[nH]c3ccccc23)NC(=O)CNC(=O)[C@@H]2CCCN2C(=O)CCc2ccc(OS(=O)(=O)O)cc2)[C@@H]1C(=O)N[C@@H](CC(=O)O)C(=O)N(C)[C@@H](Cc1ccccc1)C(N)=O` ({Hydrocinnamoyl(4-OSO3H)}-PGW[X5]D[NMeF]-NH2), the IC50 in assay [1] turned out to be 0.9 nM.

Molecule `CCCC[C@H](NC(=O)CCc1ccc(OS(=O)(=O)O)cc1)C(=O)NCC(=O)N[C@@H](Cc1c[nH]c2ccccc12)C(=O)N[C@@H](CCCC)C(=O)N[C@@H](CC(=O)O)C(=O)N/C(=C\c1ccccc1)C(N)=O` ({Hydrocinnamoyl(4-OSO3H)}-[Nle]GW[Nle]D[X3]-NH2) registered an IC50 in assay [3] of 5.3 nM.

For the molecule `CCCC[C@H](NC(=O)CCc1ccc(OS(=O)(=O)O)cc1)C(=O)NCC(=O)N[C@@H](Cc1c[nH]c2ccccc12)C(=O)N[C@@H](CCCC)C(=O)N1CC(OS(=O)(=O)O)C[C@H]1C(=O)N[C@@H](Cc1ccccc1)C(N)=O` (some centres undefined) ({Hydrocinnamoyl(4-OSO3H)}-[Nle]GW[Nle][X2]F-NH2), the IC50 in assay [4] came to 140 nM; in assay [3] it was 16 nM.

Consider `CCCC[C@H](NC(=O)CCc1ccc(OS(=O)(=O)O)cc1)C(=O)NCC(=O)N[C@@H](Cc1c[nH]c2ccccc12)C(=O)N1CCC(CCC)[C@H]1C(=O)N[C@@H](CC(=O)O)C(=O)N(C)[C@@H](Cc1ccccc1)C(N)=O` (some centres undefined) ({Hydrocinnamoyl(4-OSO3H)}-[Nle]GW[X1]D[NMeF]-NH2), for which the IC50 in assay [4] is 0.3 nM; in assay [3], 4.2 nM.

Regarding `CCCC[C@H](NC(=O)CCc1ccc(OS(=O)(=O)O)cc1)C(=O)NCC(=O)N[C@@H](Cc1c[nH]c2ccccc12)C(=O)N[C@@H](CCCC)C(=O)N[C@@H](CC(=O)O)C(=O)N(C)[C@@H](Cc1ccccc1)C(N)=O` [CCK7 analogue] ({Hydrocinnamoyl(4-OSO3H)}-[Nle]GW[Nle]D[NMeF]-NH2), the concentration for half-maximal inhibition (IC50) was 10 nM in assay [4] and 0.99 nM in assay [3].
